Data taken from PubChem BioAssay (NCI).
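48-hour exposure; five concentrations; linearly interpolated endpoints. TGI: concentration producing complete growth inhibition.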

What was measured:
Assay in all cases: inhibition of tumour cell growth, NCI panel, 48 h
MDA-N = test system: MDA-N
SN12C renal = test system: SN12C renal
HCT-15 colon = test system: HCT-15 colon
NCI-H460 lung = test system: NCI-H460 lung
M14 melanoma = test system: M14 melanoma
SK-OV-3 ovarian = test system: SK-OV-3 ovarian
K-562 leukemia = test system: K-562 leukemia
MDA-MB-435 = test system: MDA-MB-435
LOX IMVI melanoma = test system: LOX IMVI melanoma
MALME-3M melanoma = test system: MALME-3M melanoma
MDA-MB-231 breast = test system: MDA-MB-231 breast
A549 NSCLC = test system: A549 NSCLC
SK-MEL-28 melanoma = test system: SK-MEL-28 melanoma
NCI/ADR-RES ovarian = test system: NCI/ADR-RES ovarian
HCT-116 colon = test system: HCT-116 colon
T-47D breast = test system: T-47D breast
SF-539 CNS = test system: SF-539 CNS
IGROV1 ovarian = test system: IGROV1 ovarian
786-0 renal = test system: 786-0 renal
CCRF-CEM leukemia = test system: CCRF-CEM leukemia
SK-MEL-5 melanoma = test system: SK-MEL-5 melanoma
EKVX NSCLC = test system: EKVX NSCLC
HOP-92 NSCLC = test system: HOP-92 NSCLC
SR leukemia = test system: SR leukemia
NCI-H23 lung = test system: NCI-H23 lung
HCC-2998 colon = test system: HCC-2998 colon
OVCAR-4 ovarian = test system: OVCAR-4 ovarian
HOP-62 NSCLC = test system: HOP-62 NSCLC
SNB-19 CNS = test system: SNB-19 CNS
NCI-H226 lung = test system: NCI-H226 lung
SF-268 CNS = test system: SF-268 CNS
SNB-75 CNS = test system: SNB-75 CNS
ACHN renal = test system: ACHN renal
OVCAR-5 ovarian = test system: OVCAR-5 ovarian
OVCAR-8 ovarian = test system: OVCAR-8 ovarian
PC-3 prostate = test system: PC-3 prostate
COLO 205 colon = test system: COLO 205 colon
U251 CNS = test system: U251 CNS
UO-31 renal = test system: UO-31 renal
MOLT-4 leukemia = test system: MOLT-4 leukemia
CAKI-1 renal = test system: CAKI-1 renal
HT29 colon = test system: HT29 colon
SW-620 colon = test system: SW-620 colon
DU-145 prostate = test system: DU-145 prostate
KM12 colon = test system: KM12 colon
UACC-257 melanoma = test system: UACC-257 melanoma
TK-10 renal = test system: TK-10 renal
HL-60(TB) leukemia = test system: HL-60(TB) leukemia
BT-549 breast = test system: BT-549 breast
A498 renal = test system: A498 renal
SF-295 CNS = test system: SF-295 CNS
MCF7 breast = test system: MCF7 breast
OVCAR-3 ovarian = test system: OVCAR-3 ovarian
RPMI-8226 leukemia = test system: RPMI-8226 leukemia
RXF 393 renal = test system: RXF 393 renal
HS 578T breast = test system: HS 578T breast
SK-MEL-2 melanoma = test system: SK-MEL-2 melanoma
UACC-62 melanoma = test system: UACC-62 melanoma
NCI-H522 lung = test system: NCI-H522 lung

Compound: Cc1ccc(C(=O)N/N=C(\N=Nc2ccc([N+](=O)[O-])cc2)c2ccc(N(CCC#N)CCC#N)cc2C)cc1
- TGI (MDA-N): > 100 µM
- TGI (SN12C renal): > 100 µM
- TGI (HCT-15 colon): > 100 µM
- TGI (NCI-H460 lung): > 100 µM
- TGI (M14 melanoma): > 100 µM
- TGI (SK-OV-3 ovarian): > 100 µM
- TGI (K-562 leukemia): > 100 µM
- TGI (MDA-MB-435): > 100 µM
- TGI (LOX IMVI melanoma): > 100 µM
- TGI (MALME-3M melanoma): > 100 µM
- TGI (MDA-MB-231 breast): > 100 µM
- TGI (A549 NSCLC): > 100 µM
- TGI (SK-MEL-28 melanoma): > 100 µM
- TGI (NCI/ADR-RES ovarian): > 100 µM
- TGI (HCT-116 colon): > 100 µM
- TGI (T-47D breast): 83.4 µM
- TGI (SF-539 CNS): > 100 µM
- TGI (IGROV1 ovarian): > 100 µM
- TGI (786-0 renal): > 100 µM
- TGI (CCRF-CEM leukemia): > 100 µM
- TGI (SK-MEL-5 melanoma): > 100 µM
- TGI (EKVX NSCLC): > 100 µM
- TGI (HOP-92 NSCLC): > 100 µM
- TGI (SR leukemia): > 100 µM
- TGI (NCI-H23 lung): > 100 µM
- TGI (HCC-2998 colon): > 100 µM
- TGI (OVCAR-4 ovarian): > 100 µM
- TGI (HOP-62 NSCLC): > 100 µM
- TGI (SNB-19 CNS): > 100 µM
- TGI (NCI-H226 lung): > 100 µM
- TGI (SF-268 CNS): > 100 µM
- TGI (SNB-75 CNS): > 100 µM
- TGI (ACHN renal): > 100 µM
- TGI (OVCAR-5 ovarian): > 100 µM
- TGI (OVCAR-8 ovarian): > 100 µM
- TGI (PC-3 prostate): > 100 µM
- TGI (COLO 205 colon): > 100 µM
- TGI (U251 CNS): > 100 µM
- TGI (UO-31 renal): > 100 µM
- TGI (MOLT-4 leukemia): > 100 µM
- TGI (CAKI-1 renal): > 100 µM
- TGI (HT29 colon): > 100 µM
- TGI (SW-620 colon): > 100 µM
- TGI (DU-145 prostate): > 100 µM
- TGI (KM12 colon): > 100 µM
- TGI (UACC-257 melanoma): > 100 µM
- TGI (TK-10 renal): > 100 µM
- TGI (HL-60(TB) leukemia): 65.7 µM
- TGI (BT-549 breast): > 100 µM
- TGI (A498 renal): > 100 µM
- TGI (SF-295 CNS): > 100 µM
- TGI (MCF7 breast): > 100 µM
- TGI (OVCAR-3 ovarian): > 100 µM
- TGI (RPMI-8226 leukemia): > 100 µM
- TGI (RXF 393 renal): 50.9 µM
- TGI (HS 578T breast): > 100 µM
- TGI (SK-MEL-2 melanoma): > 100 µM

Compound: NC(CCC(=O)c1ccccn1)C(=O)O (centres undefined)
- TGI (MDA-N): > 100 µM
- TGI (SN12C renal): > 100 µM
- TGI (HCT-15 colon): > 100 µM
- TGI (NCI-H460 lung): > 100 µM
- TGI (M14 melanoma): > 100 µM
- TGI (SK-OV-3 ovarian): > 100 µM
- TGI (MDA-MB-435): > 100 µM
- TGI (LOX IMVI melanoma): > 100 µM
- TGI (MALME-3M melanoma): > 100 µM
- TGI (MDA-MB-231 breast): > 100 µM
- TGI (A549 NSCLC): > 100 µM
- TGI (SK-MEL-28 melanoma): > 100 µM
- TGI (NCI/ADR-RES ovarian): > 100 µM
- TGI (HCT-116 colon): > 100 µM
- TGI (T-47D breast): > 100 µM
- TGI (SF-539 CNS): > 100 µM
- TGI (IGROV1 ovarian): > 100 µM
- TGI (786-0 renal): > 100 µM
- TGI (CCRF-CEM leukemia): > 100 µM
- TGI (SK-MEL-5 melanoma): > 100 µM
- TGI (EKVX NSCLC): > 100 µM
- TGI (HOP-92 NSCLC): > 100 µM
- TGI (SR leukemia): > 100 µM
- TGI (NCI-H23 lung): > 100 µM
- TGI (HCC-2998 colon): > 100 µM
- TGI (OVCAR-4 ovarian): > 100 µM
- TGI (HOP-62 NSCLC): > 100 µM
- TGI (SNB-19 CNS): > 100 µM
- TGI (NCI-H226 lung): > 100 µM
- TGI (SF-268 CNS): > 100 µM
- TGI (ACHN renal): > 100 µM
- TGI (OVCAR-5 ovarian): > 100 µM
- TGI (OVCAR-8 ovarian): > 100 µM
- TGI (PC-3 prostate): > 100 µM
- TGI (COLO 205 colon): > 100 µM
- TGI (U251 CNS): > 100 µM
- TGI (UO-31 renal): > 100 µM
- TGI (UACC-62 melanoma): > 100 µM
- TGI (MOLT-4 leukemia): > 100 µM
- TGI (CAKI-1 renal): > 100 µM
- TGI (HT29 colon): > 100 µM
- TGI (SW-620 colon): > 100 µM
- TGI (DU-145 prostate): > 100 µM
- TGI (KM12 colon): > 100 µM
- TGI (NCI-H522 lung): > 100 µM
- TGI (UACC-257 melanoma): > 100 µM
- TGI (TK-10 renal): > 100 µM
- TGI (HL-60(TB) leukemia): > 100 µM
- TGI (BT-549 breast): > 100 µM
- TGI (A498 renal): > 100 µM
- TGI (SF-295 CNS): > 100 µM
- TGI (MCF7 breast): > 100 µM
- TGI (OVCAR-3 ovarian): > 100 µM
- TGI (RPMI-8226 leukemia): > 100 µM
- TGI (RXF 393 renal): > 100 µM
- TGI (HS 578T breast): > 100 µM
- TGI (SK-MEL-2 melanoma): > 100 µM
